Assay [1] addresses T1, GST-tagged Tnks-2 (873-1166 aa) (Homo sapiens, UniProt Q9H2K2).
T1 construct: GST-tagged Tnks-2 (873-1166 aa, prepared in-house); made in house
Description: TNKS2 activity ELISA (autoparsylation assay). It counts as biochemical. Here is the method: (§1) Description of the TNKS1 and TNKS2 ELISA Assay
(§2) Biochemical Activity Testing of TNKS 1 and 2: Activity ELISA (Autoparsylation Assay)
(§3) For analysis of autoparsylation activity of TNKS 1 and 2 an activity ELISA is performed: In the first step GST tagged TNKS is captured on a Glutathione coated plate. Then the activity assay with biotinylated NAD is performed in the absence/presence of the compounds. During the enzymatic reaction GST tagged TNKS transfers biotinylated ADP-ribose to itself from biotinylated NAD as co-substrate. For the detection streptavidin-HRP conjugate is added that binds to the biotinylated TNKS and is thereby captured to the plates. The amount of biotinylated resp. autoparsylated TNKS is detected with a luminescence substrate for HRP. The level of the luminescence signal correlats directly with the amount of autoparsylated TNKS and therefore with activity of TNKS.
(§4) The activity ELISA is performed in 384 well Glutathione coated microtiter plates (Express capture Glutathione coated plate, Biocat, Heidelberg, Germany). The plates are pre-equilibrated with PBS. Then the plates are incubated with 50 μl 20 ng/well GST-tagged Tnks-1 (1023-1327 aa, prepared in-house), respectively GST-tagged Tnks-2 (873-1166 aa, prepared in-house) in assay buffer (50 mM HEPES, 4 mM Mg-chloride, 0.05% Pluronic F-68, 2 mM DTT, pH 7.7) overnight at 4° C. The plates are washed 3 times with PBS-Tween-20. The wells are blocked by incubation at room temperature for 20 minutes with 50 μl blocking buffer (PBS, 0.05% Tween-20, 0.5% BSA). Afterwards the plates are washed 3 times with PBS-Tween-20. The enzymatic reaction is performed in 50 μl reaction solution (50 mM HEPES, 4 mM Mg-chloride, 0.05% Pluronic F-68, 1.4 mM DTT, 0.5% DMSO, pH 7.7) with 10 μM bio-NAD (Biolog, Life science Inst., Bremen, Germany) as co-substrate in the absence or presence of the test compound (10 dilution concentrations) for 1 hour at 30° C. The reaction is stopped by 3 times washing with PBS-Tween-20. For the detection 50 μl of 20 ng/μl Streptavidin, HRP conjugate (MoBiTec, Göttingen, Germany) in PBS/0.05%Tween-20/0.01%BSA are added and the plates are incubated for 30 minutes at room temperature. After three times washing with PBS-Tween-20 50 μl of SuperSignal ELISA Femto Maximum sensitivity substrate solution (ThermoFisherScientific (Pierce), Bonn, Germany) are added. Following a 1 minute incubation at room temperature luminescence signals are measured with an Envision multimode reader (Perkin Elmer LAS Germany GmbH) at 700 nm. The full value used is the inhibitor-free reaction. The pharmacological zero value used is XAV-939 (Tocris) in a final concentration of 5 μM. The inhibitory values (IC50) are determined using either the program Symyx Assay Explorer® or Condosseo® from GeneData.
A general note: An ELISA detects its analyte on a solid surface through an enzyme-linked reagent.

The target of assay [2] is T2, GST-tagged Tankyrase-2 (873-1166 aa) (Homo sapiens, UniProt Q9H2K2).
T2 construct: GST-tagged Tankyrase-2 (873-1166 aa)
Description: Tankyrase 2 autoparsylation assay (HTRF enzyme assay). Format: biochemical. Here is the method: (§5) Biochemical Activity Testing of Tankyrase 1 and 2: Autoparsylation Assay
(§6) The autoparsylation assay is run in two steps: the enzymatic reaction in which GST-tagged Tankyrase-1, resp Tankyrase-2 transferred biotinylated ADP-ribose to itself from biotinylated NAD as co-substrate and the detection reaction where a time resolved FRET between cryptate labelled anti-GST bound to the GST tag of the enzyme and Xlent® labelled-streptavidin bound the biotin-parsylation residue is analysed. The autoparsylation activity was detectable directly via the increase in HTRF signal.
(§7) The autoparsylation assay is performed as 384-well HTRF® (Cisbio, Codolet, France) assay format in Greiner low volume nb 384-well microtiter plates and is used for high throughput screen. 250 nM GST-tagged Tankyrase-1 (1023-1327 aa), respectively about 250 nM GST-tagged Tankyrase-2 (873-1166 aa) and 5 μM bio-NAD (Biolog, Life science Inst., Bremen, Germany) as co-substrate are incubated in a total volume of 5 μl (50 mM HEPES, 4 mM Mg-chloride, 0.05% Pluronic F-68, 1.4 mM DTT, 0.5% DMSO, pH 7.7) in the absence or presence of the test compound (10 dilution concentrations) for 90 min at 30° C. The reaction is stopped by the addition of 1 μl 50 mM EDTA solution. 2 μl of the detection solution (1.6 μM SA-Xlent® (Cisbio, Codolet, France), 7.4 nM Anti-GST-K® (Eu-labelled anti-GST, Cisbio, Codolet, France) in 50 mM HEPES, 800 mM KF, 0.1% BSA, 20 mM EDTA, 0.1% CHAPS, pH 7.0) are added. After 1 h incubation at room temperature the HTRF is measured with an Envision multimode reader (Perkin Elmer LAS Germany GmbH) at excitation wavelength 340 nm (laser mode) and emission wavelengths 615 nm and 665 nm. The ratio of the emission signals is determined. The full value used is the inhibitor-free reaction. The pharmacological zero value used is XAV-939 (Tocris) in a final concentration of 5 μM. The inhibitory values (IC50) are determined using either the program Symyx Assay Explorer® or Condosseo® from GeneData.

The target of assay [3] is T3, GST-tagged Tnks-1 (1023-1327 aa) (Homo sapiens, UniProt O95271).
T3 construct: GST-tagged Tnks-1 (1023-1327 aa, prepared in-house); made in house
Description: TNKS1 activity ELISA (autoparsylation assay). It counts as biochemical. Here is the method:
as §1, §2, §3, §4

Assay [4] concerns the target T4, GST-tagged Tankyrase-1 (1023-1327 aa) (Homo sapiens, UniProt O95271).
T4 construct: GST-tagged Tankyrase-1 (1023-1327 aa)
As to the kind of experiment: Tankyrase 1 autoparsylation assay (HTRF enzyme assay). Format: biochemical. Here is the method:
as §5, §6, §7
In general terms: TR-FRET usually uses a lanthanide donor and a delayed reading to cut background.

For another assay, the system named is Tankyrases. As to the kind of experiment: Cellular inhibition of Tankyrase: increase of Axin2 level in DLD1 cells (Luminex). Format: cell-based. Particulars: 24 hours, read-out: EC50 tankyrase ½ (cell assay). Here is the method: Measurement of Cellular Inhibition of Tankyrase
Since Tankyrases have been described to modulate cellular level of Axin2 (Huang et al., 2009; Nature) the increase of Axin2 level is used as readout for determination of cellular inhibition of Tankyrases in a Luminex based assay.
Cells of the colon carcinoma cell line DLD1 are plated in 96 well plates with 1.5×10^4 cells per well. Next day, cells are treated with a serial dilution of test compound in seven steps as triplicates with a final DMSO concentration of 0.3%. After 24 hours, cells are lysed in lysis buffer (20 mM Tris/HCl pH 8.0, 150 mM NaCl, 1% NP40, 10% Glycerol) and lysates are cleared by centrifugation through a 96 well filter plate (0.65 μm). Axin2 protein is isolated from cell lysates by incubation with a monoclonal anti-Axin2 antibody (R&D Systems #MAB6078) that is bound to fluorescent carboxybeads. Then, bound Axin2 is specifically detected with a polyclonal anti-Axin2 antibody (Cell Signaling #2151) and an appropriate PE-fluorescent secondary antibody. The amount of isolated Axin2 protein is determined in a Luminex^200 machine (Luminex Corporation) according to the manufacturer's instruction by counting 100 events per well. Inhibition of Tankyrase by test compounds results in higher levels of Axin2 which directly correlates with an increase of detectable fluorescence. As controls cells are treated with solvent alone (neutral control) and with a Tankyrase reference inhibitor IWR-2 (3E-06 M) which refers as control for maximum increase of Axin2. For analysis, the obtained data are normalized against the untreated solvent control and fitted for determination of the EC50 values using the Assay Explorer software (Accelrys).

Another assay has as its system DLD-1-cancer cells. The settings on record: cited from earlier work.

Data on 9 molecules can be found in patent publication US9174995B2, “Pyrrolotriazinone derivatives” (Merck Patent GmbH, priority 2012, dated 2015).

pEC50, pIC50: −log10 of the molar value.

T2 sequence (Q9H2K2 873-1166): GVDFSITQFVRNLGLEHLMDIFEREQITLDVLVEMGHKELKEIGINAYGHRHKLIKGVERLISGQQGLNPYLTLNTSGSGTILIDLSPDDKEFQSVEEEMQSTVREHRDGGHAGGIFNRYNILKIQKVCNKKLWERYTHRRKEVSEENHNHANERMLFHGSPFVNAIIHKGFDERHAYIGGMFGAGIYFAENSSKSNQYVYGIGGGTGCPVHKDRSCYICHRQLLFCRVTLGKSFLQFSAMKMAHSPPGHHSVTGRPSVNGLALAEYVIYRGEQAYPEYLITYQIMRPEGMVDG
T4 sequence (O95271 1023-1327): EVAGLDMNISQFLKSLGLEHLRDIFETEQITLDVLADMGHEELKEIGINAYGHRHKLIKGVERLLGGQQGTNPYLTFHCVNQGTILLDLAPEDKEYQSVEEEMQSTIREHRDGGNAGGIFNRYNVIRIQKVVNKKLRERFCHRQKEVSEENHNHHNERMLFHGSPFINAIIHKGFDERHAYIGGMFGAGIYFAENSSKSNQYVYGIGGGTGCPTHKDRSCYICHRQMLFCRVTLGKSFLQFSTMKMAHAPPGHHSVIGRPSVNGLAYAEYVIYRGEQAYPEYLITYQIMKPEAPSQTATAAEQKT
T1 sequence (Q9H2K2 873-1166): as the sequence (Q9H2K2 873-1166) above
T3 sequence (O95271 1023-1327): as the sequence (O95271 1023-1327) above

As for `Cc1cc2c(=O)[nH]c(-c3ccc(C(C)(C)O)cc3)nn2n1` [Compound A17, 6-[4-(1-hydroxy-1-methyl-ethyl)-phenyl]-2-methyl-5H-1,5,7,7a-tetraaza-inden-4-one], the pIC50 in assay [1], in assay [2], in assay [3] and in assay [4] was 5.52 to 6.52 each time. In the assay with Tankyrases, the negative-log EC50 (pEC50) (in general, −log10 of the EC50, conventionally taken in molar units) was 4.30 to 5.52.

As to `CC(C)(C)c1ccc(-c2nn3cccc3c(=O)[nH]2)cc1` [Compound A3, 2-(4-tert-butyl-phenyl)-3H-pyrrolo[2,1-f][1,2,4]triazin-4-one], the pIC50 – broadly, the IC50 on a negative log10 scale, so that one unit is a factor of ten – in assay [2] was 5.52 to 6.52; in assay [4] it was > 6.52. Also, the pEC50 in the assay with Tankyrases was 5.52 to 6.52.

Regarding `Oc1nc(-c2ccc(C(F)(F)F)cc2)nc2c1CSCC2` [XAV939], in the assay on DLD-1-cancer cells, the “growth of DLD-1-cancer cells” value is reported as “inhibits growth”.

As to `COC(=O)c1ccc(-c2nn3cccc3c(=O)[nH]2)cc1` [Compound A2, 4-(4-oxo-3,4-dihydro-pyrrolo[2,1-f][1,2,4]triazin-2-yl)-benzoic acid methyl ester], the pIC50 in assay [2] and in assay [4] was > 6.52 in each case. Besides, in the assay on Tankyrases, the negative-log EC50 (pEC50) was 5.52 to 6.52.

Consider `Cc1ccc(-c2nn3cccc3c(=O)[nH]2)cc1` [Compound A1, 2-p-tolyl-3H-pyrrolo[2,1-f][1,2,4]triazin-4-one], for which the negative logarithm of the IC50 (pIC50) in assay [1], in assay [2], in assay [3] and in assay [4] was > 6.52 each time.

For `Cc1ccc2c(=O)[nH]c(-c3ccc(C(C)(C)O)cc3)nn12` [Compound A19, 2-[4-(1-hydroxy-1-methyl-ethyl)-phenyl]-7-methyl-3H-pyrrolo[2,1-f][1,2,4]triazin-4-one], the pIC50 in assay [2] and in assay [4] was > 6.52 each time. The pEC50 with Tankyrases was > 6.52.

On to `CC(C)(N)c1ccc(-c2nn3cccc3c(=O)[nH]2)cc1` [Compound A16, 2-[4-(1-amino-1-methyl-ethyl)-phenyl]-3H-pyrrolo[2,1-f][1,2,4]-triazin-4-one], for which the negative logarithm of the IC50 (pIC50) in assay [2] and in assay [4] was 5.52 to 6.52 throughout.

In the case of `O=c1[nH]c(-c2ccc(Br)cc2)nn2cccc12` [Compound A6, 2-(4-bromo-phenyl)-3H-pyrrolo[2,1-f][1,2,4]triazin-4-one], the negative-log IC50 (pIC50) in assay [2] and in assay [4] was > 6.52 each time.

`CC(C)(O)c1ccc(-c2nn3c(C(F)(F)F)ccc3c(=O)[nH]2)cc1` [Compound A20, 2-[4-(1-hydroxy-1-methyl-ethyl)-phenyl]-7-trifluoromethyl-3H-pyrrolo[2,1-f][1,2,4]triazin-4-one]: the pIC50 is 4.30 to 5.52 in assay [2] and 5.52 to 6.52 in assay [4].
